Tests used:
[1] = biological target: T1, DM EGFR (DoubleMutantEGFR, L828R/T790M) (Homo sapiens, UniProt P00533, L858R/T790M); test: Inhibition of DM EGFR kinase activity (ADP-Glo); assay type: biochemical; conditions: for IC50: inhibition of kinase activity, EGFR DM (L828R/T790M); for SI, IC50(WT)/IC50(DM): selectivity index, kinase EGFR WT vs EGFR DM
T1 construct: purchased SignalChem
How it was run: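 Recombinant WT or double-mutant EGFR was incubated with a solution of 0.5 mg/mL peptide substrate and 50 μM ATP for 180 minutes at 37° C. Kinase activity was detected by ADP-Glo luminescence. IC50 values came from a four-parameter logistic fit.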

[2] = tested on: A549 (lung adenocarcinoma, WT); test: Antiproliferative activity on A549 cells (Alamar Blue); assay type: cell-based; conditions: Homo sapiens, antiproliferative test
How it was run: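 Cells seeded at 5*10^3/well in RPMI-1640 with 2% FBS, attached 16-18 h at 37° C, then exposed to compounds (≤1% DMSO) for 72 h. Alamar Blue added for 3-5 h; fluorescence read at 540/590 nm. IC50 from four-parameter logistic fit.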

[3] = Chemical stability in simulated gastric fluid (SGF); assay type: physicochemical; conditions: SGF without enzymes, pH 1,4; 10 μm; 2 hours at 37° C.; substance amount remaining
Description: 1) Determination of chemical stability in simulated intestinal fluid, simulated gastric fluid and human blood plasma.
SGF concentrate without enzymes, pH=1,4 (Sigma Ireland, cat #01651) was used as simulated gastric fluid. Initial candidate solution (10 mM in DMSO) was diluted with a SGF working solution to a concentration of 10 μm (test solution). The test solution was incubated in a dry block thermostat for 2 hours at 37° C. SIF concentrate without enzymes, pH=6.5 (Sigma Ireland, cat #55331) was used as simulated intestinal fluid. Initial candidate solution (10 mM in DMSO) was diluted with a SIF working solution to a concentration of 10 μm (test solution). The test solution was incubated in a dry block thermostat for 2 hours at 37° C. HPLC with Agilent 1200 liquid chromatography system (Agilent, USA) was employed to determine peak areas of the compounds in test samples, said peak areas corresponding to the initial test time (prior to incubation) and the final test time (after incubation in a dry block thermostat for 2 hours at 37° C.). We used gradient elution (1 mL/min flow rate). Substance amount in % in a sample after thermostatting was determined.
The stability of the compounds was estimated.

SMILES | IC50 [1] [nM] | SI, IC50(WT)/IC50(DM) [1] | IC50 [2] [nM] | Stability in SGF, % [3] [%]
C=CC(=O)Nc1cc(Nc2nccc(C(=O)c3cc4ccccc4n3C)n2)c(OC)cc1N(C)CCN(C)C [EGFR_3365_94, N-(2-((2-(dimethylamino)ethyl) (methyl)amino)-4-methoxy-5-((4-(1-methyl-1H-indole-2-carbonyl)pyrimidin-2-yl)amino)phenyl)acrylamide] | 1.41 | 18.02 | 6900 | –
C=CC(=O)Nc1cc(Nc2nccc(C(=O)c3ccc(OC)cc3OC)n2)c(OC)cc1N(C)CCN(C)C [EGFR_3365_69, N-(5-((4-(2,4-dimethoxybenzoyl)pyrimidin-2-yl)amino)-2-((2-(dimethylamino)ethyl)(methyl)amino)-4-methoxyphenyl)acrylamide] | 2.59 | 9.12 | > 10000 | 100.0
C=CC(=O)Nc1cc(Nc2nccc(C(=O)c3ccc(OCC)cc3OCC)n2)c(OC)cc1N(C)CCN(C)C [EGFR_3365_68, N-(5-((4-(2,4-diethoxybenzoyl)pyrimidin-2-yl)amino)-2-((2-(dimethylamino)ethyl) (methyl)amino)-4-methoxyphenyl)acrylamide] | 9.03 | 10.40 | 8140 | 100.0
C=CC(=O)Nc1cc(Nc2nccc(C(=O)c3ccc(Oc4ccccc4)cc3)n2)c(OC)cc1N(C)CCN(C)C [EGFR_3365_17, N-(2-((2-(dimethylamino)ethyl)(methyl)amino)-4-methoxy-5-((4-(4-phenoxybenzoyl)pyrimidin-2-yl)amino)phenyl)acrylamide] | 21.5 | 7.95 | 2390 | 100.0
C=CC(=O)Nc1cc(Nc2cc(C(=O)c3ccccc3)ccn2)c(OC)cc1N(C)CCN(C)C [EGFR_3365_3, N-(5-((4-benzoylpyridin-2-yl)amino)-2-((2-(dimethylamino)ethyl)(methyl)amino)-4-methoxyphenyl)acrylamide] | 14.5 | 5.29 | 6070 | 100.0
C=CC(=O)Nc1cc(Nc2nccc(C(=O)c3ccc(OCCC)cc3)n2)c(OC)cc1N(C)CCN(C)C [EGFR_3365_30, N-(2-((2-(dimethylamino)ethyl)(methyl)amino)-4-methoxy-5-((4-(4-propoxybenzoyl)pyrimidin-2-yl)amino)phenyl)acrylamide] | 7.69 | 79.77 | 5540 | 100.0
C=CC(=O)Nc1cc(Nc2cc(C(=O)c3ccc(N4CCCC4)cc3)ccn2)c(OC)cc1N(C)CCN(C)C [EGFR_3365_56, N-(2-((2-(dimethylamino)ethyl)(methyl)amino)-4-methoxy-5-((4-(4-(pyrrolidin-1-yl)benzoyl)pyridin-2-yl)amino)phenyl)acrylamide] | 6.3 | 19.14 | 4540 | 99.8
C=CC(=O)Nc1cc(Nc2nccc(C(=O)c3ccc(N4CCC(N)CC4)cc3)n2)c(OC)cc1N(C)CCN(C)C [EGFR_3365_121, N-(5-((4-(4-(4-aminopiperidin-1-yl)benzoyl)pyrimidin-2-yl)amino)-2-((2-(dimethylamino)ethyl)(methyl)amino)-4-methoxyphenyl)acrylamide] | 0.89 | 24.30 | 8350 | –
C=CC(=O)Nc1cc(Nc2cc(C(=O)c3ccc(N4CCN(C)CC4)cc3)ccn2)c(OC)cc1N(C)CCN(C)C [EGFR_3365_55, N-(2-((2-(dimethylamino)ethyl)(methyl)amino)-4-methoxy-5-((4-(4-(4-methylpiperazin-1-yl)benzoyl)pyridin-2-yl)amino)phenyl)acrylamide] | 25.4 | 3.02 | 11600 | 98.8
C=CC(=O)Nc1cc(Nc2nccc(C(=O)c3ccc(OCC)cc3)n2)c(OC)cc1N(C)CCN(C)C [EGFR_3365_29, N-(2-((2-(dimethylamino)ethyl)(methyl)amino)-5-((4-(4-ethoxybenzoyl)pyrimidin-2-yl)amino)-4-methoxyphenyl) acrylamide] | 10.7 | 18.79 | 16000 | 98.1
C=CC(=O)Nc1cc(Nc2cc(C(=O)c3ccc(OCCC)cc3)ccn2)c(OC)cc1N(C)CCN(C)C [EGFR_3365_50, N-(2-((2-(dimethylamino)ethyl)(methyl)amino)-4-methoxy-5-((4-(4-propoxybenzoyl)pyridin-2-yl)amino)phenyl)acrylamide] | 3.29 | 9.74 | 4920 | 100.0
C=CC(=O)Nc1cc(Nc2nccc(C(=O)c3ccc(N(C)C)cc3)n2)c(OC)cc1N(C)CCN(C)C [EGFR_3365_73, N-(5-((4-(4-(dimethylamino)benzoyl)pyrimidin-2-yl)amino)-2-((2-(dimethylamino)ethyl) (methyl)amino)-4-methoxyphenyl)acrylamide] | 2.35 | 13.89 | 16000 | 100.0
C=CC(=O)Nc1cc(Nc2nccc(C(=O)c3ccc(N4CCC4)cc3)n2)c(OC)cc1N(C)CCN(C)C [EGFR_3365_58, N-(5-((4-(4-(azetidin-1-yl)benzoyl)pyrimidin-2-yl)amino)-2-((2-(dimethylamino)ethyl)(methyl)amino)-4-methoxyphenyl)acrylamide] | 2.36 | 16.81 | > 10000 | 89.9
C=CC(=O)Nc1cc(Nc2nccc(C(=O)c3ccc(OC)cc3)n2)c(OC)cc1N(C)CCN(C)C [EGFR_3365_28, N-(2-((2-(dimethylamino)ethyl)(methyl)amino)-4-methoxy-5-((4-(4-methoxybenzoyl)pyrimidin-2-yl)amino)phenyl)acrylamide] | 6.27 | 20.33 | 3640 | 100.0
C=CC(=O)Nc1cc(Nc2cc(C(=O)c3ccc(N4CC(OC)C4)cc3)ccn2)c(OC)cc1N(C)CCN(C)C (racemic) [EGFR_3365_53, N-(2-((2-(dimethylamino)ethyl)(methyl)amino)-4-methoxy-5-((4-(4-(3-methoxyazetidin-1-yl)benzoyl)pyridin-2-yl)amino)phenyl)acrylamide] | 7.31 | 25.06 | 8240 | 100.0
C=CC(=O)Nc1cc(Nc2nccc(C(=O)c3ccc(OC)cc3OCCC)n2)c(OC)cc1N(C)CCN(C)C [EGFR_3365_102, N-(2-((2-(dimethylamino)ethyl)(methyl)amino)-4-methoxy-5-((4-(4-methoxy-2-propoxybenzoyl)pyrimidin-2-yl)amino)phenyl)acrylamide] | 11.2 | 18.40 | 5570 | –
C=CC(=O)Nc1cc(Nc2nccc(C(=O)c3ccc(N4CCCCC4)cc3)n2)c(OC)cc1N(C)CCN(C)C [EGFR_3365_90, N-(2-((2-(dimethylamino)ethyl)(methyl)amino)-4-methoxy-5-((4-(4-(piperidin-1-yl)benzoyl)pyrimidin-2-yl)amino)phenyl)acrylamide] | 0.75 | 43.40 | 5300 | –

From US20200339544A1 (JOINT STOCK COMPANY "BIOCAD", priority 2017, published 2020)
